15 compounds from patent US20240376085A1 (Janssen Pharmaceutica NV, priority 2021, published 2024) can be followed below.

For one test, the target named is T1, IL-17A : IL-17RA binding (Homo sapiens, UniProt Q16552, K93Q).
T1 construct: Name: IL-17A-Flag
The test is described as follows: IL-17A(FLAG-tagged):IL-17RA(His-tagged) binding disruption Eu-HTRF assay, Protocol 1. The following applies: FLAG-IL-17A 2.5 nM at 2x final concentration; average if tested more than once. An excerpt: An antibody directed against the FLAG tag of IL-17A (SEQ ID NO: 1) is labeled with the HTRF donor chromophore (Europium-cryptate). IL-17A is present as a dimer that is “locked into” this quaternary structure due to the formation of loop-spanning […] disulfide bridges. The construct of IL-17RA used in the assay excludes the […] portion of the receptor and is fused to a C-terminal 10×His tag (SEQ ID NO:2). An antibody directed against the His tag of the IL-17RA chimera is labeled with the HTRF acceptor chromophore (“D2”). The fluorescence-resonance energy transfer (FRET) depends on the vicinity of the donor chromophore to the acceptor, and interruption of the binding between the IL-17A and IL-17RA causes the reduction/loss of FRET. Therefore, this assay allows to evaluate the compound effect on the binding IL-17A and IL-17RA by monitoring the fluorescence intensity of donor vs acceptor. The assay was run using either Protocol 1 or Protocol 2 as described below.
Protocol 1. 40 nl of 2-fold serial diluted compound solution for total 22 dilution points is added into each well of a 1536-well, white, low-volume, non-binding plate (Greiner #782904), then 2 μl of FLAG tagged IL-17A at 2× final concentration (2.5 nM) in solution of PBS+0.01% Triton-X100 is added to each well. The assay plate is briefly centrifuged then incubated for 1 h at rt. A mixed solution is prepared containing 2×5 nM 10HIS×IL-17RA, 2×2.5 nM Eu-anti-FLAG (CISBIO), 2×5 nM D2-anti-HIS (CISBIO) in PBS+0.01% Triton-X100+200 mM Potassium Fluoride (Sigma 60238) and 2 μl of mix is added to each well of the assay plate. The plate is briefly centrifuged then incubated for 2 h at rt. The HTRF intensities at the wavelength of donor (620 nm) and acceptor (665 nm) are measured using BMG Pherastar. The ratio between intensities at two wavelengths is calculated and plotted against the compound concentration and the data is fitted to a one-site competition model to yield IC50 of the compound.
(In TR-FRET formats the signal depends on donor and acceptor labels being close together.)

For test [1], the system named is IL-17A-induced G-CSF production in human normal keratinocyte (NHK). The test is described as follows: NHK assay: IL-17A-induced G-CSF production in normal human keratinocytes. The class given is cell-based. The following applies: 24 h, IL-17A 5 ng/mL, average if tested more than once. Here is the method:
IL-17A acts directly on keratinocytes through binding to dimeric receptor IL-17RA/RC and drives the production of a number of inflammatory mediators known to be elevated in psoriasis lesional tissue. IL-17A small molecule inhibitors that block the IL-17A to interact with IL-17R would inhibit the IL-17A signaling in its targeted cells such as keratinocytes. The compound functional activity is evaluated for its impact on IL-17A-induced G-CSF production in human normal keratinocyte (NHK).
Adult normal human keratinocytes are cultured in keratinocyte growth medium (Lonza) in a flask till reaching ˜90% confluence, then cells are transferred to a 384-well plate at density of 3000-4000 cell/well. Recombinant human IL-17A (Gibco PHC9174) is pre-incubated with titrated compound or DMSO for 1 h at rt then added to the cell culture plate. The final concentration of IL-17A is 5 ng/mL and DMSO is 0.2%, in the culture containing 5% FBS. Cells are cultured/treated for 24 h at 37° C. Supernatants are collected and G-CSF production is measured through HTRF technology using Human G-CSF Kit (CisBio). G-CSF concentration was extrapolated from the standard curve and IC50 is determined using GraphPad Prism. Cell viability is also evaluated using CellTiter-Glo kit (Promega) and effect of compound on cell viability is compared to DMSO control.

Structures are written as SMILES.

T1 sequence (Q16552 with tags, fused parts or gaps K93Q): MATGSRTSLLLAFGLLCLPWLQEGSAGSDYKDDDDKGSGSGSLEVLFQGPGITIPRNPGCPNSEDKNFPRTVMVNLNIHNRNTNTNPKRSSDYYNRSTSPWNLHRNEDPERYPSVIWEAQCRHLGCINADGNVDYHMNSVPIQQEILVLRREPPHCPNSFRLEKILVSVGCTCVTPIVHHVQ

What is called IC50 is the concentration that inhibits the measured activity by half. Read a high IC50 as a need for much substance. Consider `C[C@@H](NC(=O)CCC(F)(F)F)c1ccc2nc([C@@H](NC(=O)c3cnn(C)c3C(F)(F)F)C3CCC(F)(F)CC3)[nH]c2c1` [Example 58, N—((S)-(4,4-Difluorocyclohexyl)(6-((R)-1-(4,4,4-trifluorobutanamido)ethyl)-1H-benzo[d]imidazol-2-yl)methyl)-1-methyl-5-(trifluoromethyl)-1H-pyrazole-4-carboxamide], for which the IC50 at IL-17A : IL-17RA binding is above 0.1 µM; in test [1] (Homo sapiens, Keratinocyte) it was above 0.1 µM.
With `CC(CC(=O)N[C@H](C)c1ccc2nc([C@@H](NC(=O)c3ccnn3CC(F)(F)F)C3CCC(F)(F)CC3)[nH]c2c1)C(F)(F)F` (single isomer, unassigned) [Example 137, N—((S)-(4,4-Difluorocyclohexyl)(6-((R)-1-((S*)-4,4,4-trifluoro-3-methylbutanamido)ethyl)-1H-benzo[d]imidazol-2-yl)methyl)-1-(2,2,2-trifluoroethyl)-1H-pyrazole-5-carboxamide], the IC50 was above 0.1 µM at IL-17A : IL-17RA binding and 0.05 to 0.1 µM in test [1].
On to `Cc1nonc1C(=O)N[C@H](c1nc2ccc([C@H](NC(=O)CC3CC(F)(F)C3)C3CC3)cc2[nH]1)C1CCOC(C)(C)C1` (single isomer, unassigned) [Example 173, N—((S)-(6-((R)-Cyclopropyl(2-(3,3-difluorocyclobutyl)acetamido)methyl)-1H-benzo[d]imidazol-2-yl)((S*)-2,2-dimethyltetrahydro-2H-pyran-4-yl)methyl)-4-methyl-1,2,5-oxadiazole-3-carboxamide], for which the IC50 is above 0.1 µM on IL-17A : IL-17RA binding and above 0.1 µM in test [1] (Homo sapiens, Keratinocyte).
Consider `C[C@@H](NC(=O)CCC(F)(F)F)c1ccc2[nH]c(C(CC(C)(C)C(F)(F)F)NC(=O)c3ncnn3CC3CC3)nc2c1` (single isomer, unassigned) [Example 195, 1-(Cyclopropylmethyl)-N—((S*)-4,4,4-trifluoro-3,3-dimethyl-(5-((R)-1-(4,4,4-trifluorobutanamido)ethyl)-1H-benzo[d]imidazol-2-yl)butyl)-1H-1,2,4-triazole-5-carboxamide], for which the IC50 at IL-17A : IL-17RA binding was above 0.1 µM; in test [1] (Homo sapiens, Keratinocyte), above 0.1 µM.
As to `O=C(CC1CC(F)(F)C1)N[C@@H](c1ccc2[nH]c([C@@H](NC(=O)c3nonc3OCC(F)F)C3CCC(F)(F)CC3)nc2c1)C1CC1` [Example 144, N—((S)-(5-((R)-Cyclopropyl(2-(3,3-difluorocyclobutyl)acetamido)methyl)-1H-benzo[d]imidazol-2-yl)(4,4-difluorocyclohexyl)methyl)-4-(2,2-difluoroethoxy)-1,2,5-oxadiazole-3-carboxamide], the IC50 is above 0.1 µM on IL-17A : IL-17RA binding and below 0.05 µM in test [1] (Homo sapiens, Keratinocyte).
`Cn1nccc1C(=O)N[C@H](c1nc2cc(C(NC(=O)CCC(F)(F)F)C3CCC3)ccc2[nH]1)C1CCC(F)(F)CC1` (single isomer, unassigned) [Example 43, N—((S)-(5-((R*)-Cyclobutyl(4,4,4-trifluorobutanamido)methyl)-1H-benzo[d]imidazol-2-yl)(4,4-difluorocyclohexyl)methyl)-1-methyl-1H-pyrazole-5-carboxamide]: the half-maximal inhibitory concentration (IC50) (at IL-17A : IL-17RA binding; in test [1]) was above 0.1 µM in each case.
Take `C[C@@H](NC(=O)CCC(F)(F)F)c1ccc2[nH]c([C@@H](NC(=O)c3conc3C3CC3)C3CCC(F)(F)CC3)nc2c1` [Example 209, 3-Cyclopropyl-N—((S)-(4,4-difluorocyclohexyl)(5-((R)-1-(4,4,4-trifluorobutanamido)ethyl)-1H-benzo[d]imidazol-2-yl)methyl)isoxazole-4-carboxamide]: the IC50 was 0.05 to 0.1 µM on IL-17A : IL-17RA binding and below 0.05 µM in test [1] (Homo sapiens, Keratinocyte).
On the same counts, the results for `CC(C)(O)c1nonc1C(=O)N[C@@H](COC(C)(C)C(F)(F)F)c1nc2cc([C@H](NC(=O)CC3CC(F)(F)C3)C3CC3)ccc2[nH]1` [Example 168, N—((R)-1-(5-((R)-Cyclopropyl(2-(3,3-difluorocyclobutyl)acetamido)methyl)-1H-benzo[d]imidazol-2-yl)-2-((1,1,1-trifluoro-2-methylpropan-2-yl)oxy)ethyl)-4-(2-hydroxypropan-2-yl)-1,2,5-oxadiazole-3-carboxamide] are 0.05 to 0.1 µM and above 0.1 µM.
In the case of `Cc1c(C(=O)N[C@H](c2nc3cc([C@@H](C)NC(=O)CCC(F)(F)F)ccc3[nH]2)C2CCC(F)(F)CC2)cnn1CCC(F)(F)F` [Example 5, N—[(S)-(4,4-Difluorocyclohexyl)-[6-[(1R)-1-(4,4,4-trifluorobutanoylamino)ethyl]-1H-benzimidazol-2-yl]methyl]-5-methyl-1-(3,3,3-trifluoropropyl)pyrazole-4-carboxamide], the IC50 is above 0.1 µM on IL-17A : IL-17RA binding and above 0.1 µM in test [1] (Homo sapiens, Keratinocyte).
For the compound `C[C@@H](NC(=O)CCC(F)(F)F)c1ccc2[nH]c([C@@H](NC(=O)c3cnn(CC4CCC4(F)F)n3)C3CCC(F)(F)CC3)nc2c1` (stereo partly drawn) [Example 87, 2-((2,2-Difluorocyclobutyl)methyl)-N—((S)-(4,4-difluorocyclohexyl)(5-((R)-1-(4,4,4-trifluorobutanamido)ethyl)-1H-benzo[d]imidazol-2-yl)methyl)-2H-1,2,3-triazole-4-carboxamide], the IC50 at IL-17A : IL-17RA binding was above 0.1 µM; in test [1] (Homo sapiens, Keratinocyte) it was above 0.1 µM.
For `CC(CC(=O)N[C@H](C)c1ccc2nc([C@@H](NC(=O)c3cc(F)ccc3F)C3CCC(F)(F)CC3)[nH]c2c1)C(F)(F)F` (single isomer, unassigned) [Example 136, N—((S)-(4,4-Difluorocyclohexyl)(6-((R)-1-((R*)-4,4,4-trifluoro-3-methylbutanamido)ethyl)-1H-benzo[d]imidazol-2-yl)methyl)-2,5-difluorobenzamide], the IC50 on IL-17A : IL-17RA binding is above 0.1 µM; in test [1] (Homo sapiens, Keratinocyte), above 0.1 µM.
With `C[C@@H](NC(=O)CC(C)(C)C)c1ccc2[nH]c([C@@H](NC(=O)c3ccnn3C)C3CCC(F)(F)CC3)nc2c1` [Example 117, N—((S)-(4,4-Difluorocyclohexyl)(5-((R)-1-(3,3-dimethylbutanamido)ethyl)-1H-benzo[d]imidazol-2-yl)methyl)-1-methyl-1H-pyrazole-5-carboxamide], the IC50 was above 0.1 µM at IL-17A : IL-17RA binding and above 0.1 µM in test [1] (Homo sapiens, Keratinocyte).
As to `C[C@@H](NC(=O)CCC(F)(F)F)c1ccc2[nH]c([C@@H](NC(=O)c3cnn(CCOC(F)(F)F)n3)C3CCC(F)(F)CC3)nc2c1` [Example 35, N—[(S)-(4,4-Difluorocyclohexyl)-[6-[(1R)-1-(4,4,4-trifluorobutanoylamino)ethyl]-1H-benzimidazol-2-yl]methyl]-2-[2-(trifluoromethoxy)ethyl]triazole-4-carboxamide], the IC50 at IL-17A : IL-17RA binding is above 0.1 µM; in test [1] (Homo sapiens, Keratinocyte), above 0.1 µM.
Regarding `CC(NC(=O)CCC(F)(F)F)c1ccc2nc([C@H](CC(C)(C)C(F)(F)F)NC(=O)c3ccnn3C(C)C)[nH]c2c1` (single isomer, unassigned) [Example 232, 1-Isopropyl-N—((S)-4,4,4-trifluoro-3,3-dimethyl-1-(6-((R*)-1-(4,4,4-trifluorobutanamido)ethyl)-1H-benzo[d]imidazol-2-yl)butyl)-1H-pyrazole-5-carboxamide], the IC50 on IL-17A : IL-17RA binding was above 0.1 µM; in test [1], 0.05 to 0.1 µM.
As to `C[C@H](OCC(NC(=O)c1nonc1C1CC1)c1nc2ccc([C@H](NC(=O)CC3CC(F)(F)C3)C3CC3)cc2[nH]1)C(F)(F)F` (single isomer, unassigned) [Example 154, 4-Cyclopropyl-N—((R*)-1-(6-((R)-cyclopropyl(2-(3,3-difluorocyclobutyl)acetamido)methyl)-1H-benzo[d]imidazol-2-yl)-2-(((S)-1,1,1-trifluoropropan-2-yl)oxy)ethyl)-1,2,5-oxadiazole-3-carboxamide], the IC50 is below 0.05 µM at IL-17A : IL-17RA binding and 0.05 to 0.1 µM in test [1] (Homo sapiens, Keratinocyte).
